Assay results as given in patent US20210338749A1, “METHODS OF TREATMENT OF INFLAMMATORY CONDITIONS AND ASSOCIATED INFECTIONS” (Servatus Ltd., priority 2018, published 2021).

Legend:
[1] = tested on: DSS-induced ulcerative colitis; conditions: chronic 2% DSS murine model, previous data obtained by CRL; cited from earlier work
[2] = tested on: Staphylococcus aureus (ATCC 29213); assay: Agar well diffusion assay; type: cell-based; conditions: S. aureus (ATCC 29213), includes well diameter of 9 mm
Description: (§1) Inhibition of pathogen growth was determined using an agar well diffusion assay. Cultures of the five test Lactobacillus species were grown in MRS broth for 24 hours at 37° C. Each pathogen was sub-cultured onto nutrient agar plates or 5% CBA plates and incubated under the appropriate conditions (as described above) prior to resuspension in DPBS to give a McFarland standard of 0.5 (equivalent to 10^8 CFU/mL). Each 0.5 McFarland standardised culture was spread, using a swab, onto nutrient agar plates or CBA plates and allowed to soak in prior to making 9 mm wells. 100 μL of each test Lactobacillus, was then added to individual wells and the plates were incubated for 24 hours at 37° C. […] Following incubation, zones of inhibition or zones of growth reduction (hazing of growth) were measured (mm) and recorded. Two readings were taken for each zone and three replicates were used.
(§2) The ability of L. diolivorans, L. paracasei, L. parafarraginis, L. rapi and L. zeae deposited pursuant to the Budapest Treaty as described hereinbefore were then tested for their ability to inhibit the growth of pathogenic bacteria Staphylococcus aureus (ATCC 29213 and ATCC 25923), Staphylococcus epidermidis (clinical isolate), Pseudomonas aeruginosa (ATCC 27853) and Escherichia coli K12. These pathogens were grown under aerobic conditions at 37° C. in nutrient agar. Inhibition of growth was determined using an agar well diffusion assay as described above. In addition, cell free supernatants derived from culture of the Lactobacillus species were also tested. Briefly, after 24 hours growth, cultures of Lactobacillus were centrifuged at 10,000×g and the supernatant filter sterilised through a 0.2 μm membrane. 100 μl of cell free supernatant was added to the wells containing pathogen.

[3] = tested on: Pseudomonas aeruginosa (ATCC 27853); assay: Agar well diffusion assay; type: cell-based; conditions: P. aeruginosa, includes well diameter of 9 mm
Description: as §1, §2

Escherichia coli K12 = assay: Agar well diffusion assay; type: cell-based; conditions: E. coli, includes well diameter of 9 mm
Description: as §1, §2

[4] = tested on: Staphylococcus aureus (ATCC 25923); assay: Agar well diffusion assay; type: cell-based; conditions: S. aureus (ATCC 25923), includes well diameter of 9 mm
Description: as §1, §2

[5] = tested on: Citrobacter sp (ATCC 51378); assay: Agar well diffusion assay; type: cell-based; conditions: 100 μL culture per 9 mm well, 24 hours, ciprofloxacin 5 μg
Description: (§3) The ability of the Lactobacillus species L. diolivorans, L. paracasei, L. parafarraginis, L. rapi and L. zeae deposited pursuant to the Budapest Treaty as described hereinbefore were tested for their ability to inhibit the growth of bacterial pathogens associated with inflammation and various inflammatory conditions. Pathogens tested for this purpose were Campylobacter jejuni (ATCC 33291), Helicobacter pylori (ATCC 700824), Clostridium difficile (ATCC 9689), Salmonella typhimurium (ATCC 29630), Yersinia enterocolitica (ATCC 23715), Citrobacter sp (ATCC 51378), Streptococcus pyogenes (ATCC 19615), Streptococcus mutans (ATCC 25175), Klebsiella oxytoca (ATCC 700324), and Proteus mirabilis (ATCC 25933). C. jejuni and H. pylori were grown under microaerobic conditions at 37° C. in 5% Columbia horse blood agar (CBA). S. typhimurium, Y. enterocolitica, Citrobacter sp., K. oxytoca and P. mirabilis were grown under aerobic conditions at 37° C. in nutrient agar. S. pyogenes and S. mutans were grown under aerobic conditions with 5% CO2 at 37° C. in 5% CBA. C. difficile was grown under anaerobic conditions at 37° C. in 5% CBA.
as §1

[6] = tested on: Klebsiella oxytoca (ATCC 700324); assay: Agar well diffusion assay; type: cell-based; conditions: K. oxytoca; 100 μL culture per 9 mm well, 24 hours; ciprofloxacin 5 μg
Description: as §3, §1

[7] = tested on: Streptococcus mutans (ATCC 25175); assay: Agar well diffusion assay; type: cell-based; conditions: S. mutans; 100 μL culture per 9 mm well, 24 hours; ciprofloxacin 5 μg
Description: as §3, §1

[8] = tested on: Proteus mirabilis (ATCC 25933); assay: Agar well diffusion assay; type: cell-based; conditions: P. mirabilis; 100 μL culture per 9 mm well, 24 hours; ciprofloxacin 5 μg
Description: as §3, §1

[9] = tested on: Yersinia enterocolitica (ATCC 23715); assay: Agar well diffusion assay; type: cell-based; conditions: Y. enterocolitica; 100 μL culture per 9 mm well, 24 hours; ciprofloxacin 5 μg
Description: as §3, §1

[10] = tested on: Streptococcus pyogenes (ATCC 19615); assay: Agar well diffusion assay; type: cell-based; conditions: S. pyogenes; 100 μL culture per 9 mm well, 24 hours; ciprofloxacin 5 μg
Description: as §3, §1

[11] = tested on: Helicobacter pylori (ATCC 700824); assay: Agar well diffusion assay; type: cell-based; conditions: H. pylori; 100 μL culture per 9 mm well, 24 hours; ciprofloxacin 5 μg
Description: as §3, §1

[12] = tested on: Salmonella typhimurium (ATCC 29630); assay: Agar well diffusion assay; type: cell-based; conditions: S. typhimurium; 100 μL culture per 9 mm well, 24 hours; ciprofloxacin 5 μg
Description: as §3, §1

[13] = tested on: Campylobacter jejuni (ATCC 33291); assay: Agar well diffusion assay; type: cell-based; conditions: C. jejuni; 100 μL culture per 9 mm well, 24 hours; ciprofloxacin 5 μg
Description: as §3, §1

[14] = cell free supernatants derived from Lactobacilli cultures

O=C(O)c1cc(/N=N/c2ccc(S(=O)(=O)Nc3ccccn3)cc2)ccc1O [Sulfasalazine]
Therapeutic efficacy (DAI score) [1]: failed to demonstrate therapeutic efficacy

Nc1nc2nc[nH]c2c(=S)[nH]1 [6-Thioguanine]
Therapeutic efficacy (DAI score) [1]: failed to demonstrate therapeutic efficacy

Nc1ccc(O)c(C(=O)O)c1 [5-Aminosalicylic acid]
Therapeutic efficacy (DAI score) [1]: failed to demonstrate therapeutic efficacy

C[C@]12C=CC(=O)C=C1CC[C@@H]1[C@@H]2[C@@H](O)C[C@@]2(C)[C@H]1CC[C@]2(O)C(=O)CO [Prednisolone]
Therapeutic efficacy (DAI score) [1]: failed to demonstrate therapeutic efficacy

O=C(O)c1cn(C2CC2)c2cc(N3CCNCC3)c(F)cc2c1=O [Ciprofloxacin, ciprofloxacin]
Zones of inhibition/zones of growth reduction [2, 14]: 33.7 mm
Zones of inhibition/zones of growth reduction ([2]; live cultures of Lactobacilli): 33.7 mm
Zones of inhibition/zones of growth reduction [3, 14]: 39.2 mm
Zones of inhibition/zones of growth reduction ([3]; live cultures of Lactobacilli): 39.2 mm
Zones of inhibition/zones of growth reduction (Escherichia coli K12; [14]): 40.0 mm
Zones of inhibition/zones of growth reduction (Escherichia coli K12; live cultures of Lactobacilli): 40.0 mm
Zones of inhibition/zones of growth reduction [4, 14]: 33.7 mm
Zones of inhibition/zones of growth reduction ([4]; live cultures of Lactobacilli): 33.7 mm
Zones of inhibition/zones of growth reduction [5]: 47.0 mm
Zones of inhibition/zones of growth reduction [6]: 41.2 mm
Zones of inhibition/zones of growth reduction [7]: 28.5 mm
Zones of inhibition/zones of growth reduction [8]: 44.2 mm
Zones of inhibition/zones of growth reduction [9]: 44.2 mm
Zones of inhibition/zones of growth reduction [10]: 30.2 mm
Zones of inhibition/zones of growth reduction [11]: 31.7 mm
Zones of inhibition/zones of growth reduction [12]: 49 mm
Zones of inhibition/zones of growth reduction [13]: 30.2 mm
